The target of one assay is T1, Aminopeptidase N (Plasmodium falciparum FcB1/Columbia, UniProt O96935).
T1 sequence (O96935 whole entry): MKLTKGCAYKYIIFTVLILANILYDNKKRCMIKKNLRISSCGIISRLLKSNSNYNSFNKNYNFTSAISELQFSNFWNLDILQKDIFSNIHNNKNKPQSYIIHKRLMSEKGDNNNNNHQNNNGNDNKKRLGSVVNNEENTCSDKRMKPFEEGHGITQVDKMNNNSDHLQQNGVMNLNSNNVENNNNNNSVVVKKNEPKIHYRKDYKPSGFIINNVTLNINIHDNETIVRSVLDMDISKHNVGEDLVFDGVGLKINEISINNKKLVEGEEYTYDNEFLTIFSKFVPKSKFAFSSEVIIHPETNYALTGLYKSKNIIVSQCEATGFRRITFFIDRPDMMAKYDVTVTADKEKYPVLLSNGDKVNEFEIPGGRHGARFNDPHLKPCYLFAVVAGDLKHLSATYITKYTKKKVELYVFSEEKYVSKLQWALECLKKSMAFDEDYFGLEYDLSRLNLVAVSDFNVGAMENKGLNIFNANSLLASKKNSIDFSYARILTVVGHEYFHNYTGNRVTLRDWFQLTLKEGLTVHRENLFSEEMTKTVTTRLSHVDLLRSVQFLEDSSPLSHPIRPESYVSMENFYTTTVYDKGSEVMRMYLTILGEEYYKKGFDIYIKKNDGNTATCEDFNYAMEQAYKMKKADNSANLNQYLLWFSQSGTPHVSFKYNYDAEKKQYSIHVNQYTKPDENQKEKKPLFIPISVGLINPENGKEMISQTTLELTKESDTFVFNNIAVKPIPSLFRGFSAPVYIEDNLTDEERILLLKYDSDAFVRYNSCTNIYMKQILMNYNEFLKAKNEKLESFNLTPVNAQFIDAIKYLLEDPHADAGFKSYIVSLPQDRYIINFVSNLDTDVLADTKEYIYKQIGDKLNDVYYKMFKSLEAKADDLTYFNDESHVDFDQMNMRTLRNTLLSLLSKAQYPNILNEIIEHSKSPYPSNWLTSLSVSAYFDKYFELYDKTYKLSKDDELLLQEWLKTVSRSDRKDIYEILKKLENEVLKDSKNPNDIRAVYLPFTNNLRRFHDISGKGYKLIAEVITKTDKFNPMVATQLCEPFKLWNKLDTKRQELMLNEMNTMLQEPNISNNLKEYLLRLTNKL
Put plainly: malaria alanyl aminopeptidase activity blockers – biochemical, fluorogenic H-Leu-NHMec substrate, 1536-well (AID 1445). The arrangement: species or system Plasmodium falciparum 3D7, 3D7.

For assay [1], the target named is Polyadenylate-binding protein 1 (Homo sapiens, UniProt P11940). Briefly: blockers of PABP interaction with poly(A) – biochemical, fluorescence polarization, […] (AID 2014). (In fluorescence polarisation assays a small probe gives low polarisation when free and higher when bound to something large.)
Polyadenylate-binding protein 1, sequence (P11940 whole entry): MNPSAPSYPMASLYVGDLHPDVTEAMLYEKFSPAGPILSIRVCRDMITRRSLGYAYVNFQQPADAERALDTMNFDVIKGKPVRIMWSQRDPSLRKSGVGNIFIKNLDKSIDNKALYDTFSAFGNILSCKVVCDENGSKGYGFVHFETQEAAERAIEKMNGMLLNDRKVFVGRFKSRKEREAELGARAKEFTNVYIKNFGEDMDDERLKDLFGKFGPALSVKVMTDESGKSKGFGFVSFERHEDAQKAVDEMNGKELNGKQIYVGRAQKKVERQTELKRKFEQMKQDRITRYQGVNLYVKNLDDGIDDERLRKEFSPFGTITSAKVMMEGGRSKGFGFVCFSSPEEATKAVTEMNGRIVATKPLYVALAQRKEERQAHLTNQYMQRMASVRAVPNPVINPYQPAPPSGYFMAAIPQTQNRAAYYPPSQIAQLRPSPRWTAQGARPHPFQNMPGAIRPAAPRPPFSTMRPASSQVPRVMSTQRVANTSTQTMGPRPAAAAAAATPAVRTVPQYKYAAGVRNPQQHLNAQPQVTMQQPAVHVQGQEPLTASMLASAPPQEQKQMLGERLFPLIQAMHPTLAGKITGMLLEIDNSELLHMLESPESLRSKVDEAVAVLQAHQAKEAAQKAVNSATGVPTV
Assay [2] deals with Eukaryotic translation initiation factor 4H (Homo sapiens, UniProt Q15056). Put plainly: eIF4H binding inhibition – biochemical, uHTS, fluorescence polarization, translation initiation inhibitor project, primary screen (AID 2012).
For assay [3], the target named is Glyceraldehyde-3-phosphate dehydrogenase (Homo sapiens, UniProt P04406).
Glyceraldehyde-3-phosphate dehydrogenase, sequence (P04406 whole entry): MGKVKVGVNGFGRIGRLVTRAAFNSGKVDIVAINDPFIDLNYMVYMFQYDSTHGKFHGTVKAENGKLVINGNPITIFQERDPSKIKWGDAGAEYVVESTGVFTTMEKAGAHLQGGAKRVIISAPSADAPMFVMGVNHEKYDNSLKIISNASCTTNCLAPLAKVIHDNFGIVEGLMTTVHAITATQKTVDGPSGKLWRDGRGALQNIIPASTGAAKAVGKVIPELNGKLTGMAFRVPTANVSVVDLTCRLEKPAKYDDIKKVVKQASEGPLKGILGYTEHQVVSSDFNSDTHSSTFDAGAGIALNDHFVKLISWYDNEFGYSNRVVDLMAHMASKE
For assay [4], the target named is Alkaline phosphatase, placental type (Homo sapiens, UniProt P05187). Put plainly: human placental alkaline phosphatase inhibition – biochemical, luminescence, confirmation (AID 1512). In kind it is functional.
Alkaline phosphatase, placental type, sequence (P05187 whole entry): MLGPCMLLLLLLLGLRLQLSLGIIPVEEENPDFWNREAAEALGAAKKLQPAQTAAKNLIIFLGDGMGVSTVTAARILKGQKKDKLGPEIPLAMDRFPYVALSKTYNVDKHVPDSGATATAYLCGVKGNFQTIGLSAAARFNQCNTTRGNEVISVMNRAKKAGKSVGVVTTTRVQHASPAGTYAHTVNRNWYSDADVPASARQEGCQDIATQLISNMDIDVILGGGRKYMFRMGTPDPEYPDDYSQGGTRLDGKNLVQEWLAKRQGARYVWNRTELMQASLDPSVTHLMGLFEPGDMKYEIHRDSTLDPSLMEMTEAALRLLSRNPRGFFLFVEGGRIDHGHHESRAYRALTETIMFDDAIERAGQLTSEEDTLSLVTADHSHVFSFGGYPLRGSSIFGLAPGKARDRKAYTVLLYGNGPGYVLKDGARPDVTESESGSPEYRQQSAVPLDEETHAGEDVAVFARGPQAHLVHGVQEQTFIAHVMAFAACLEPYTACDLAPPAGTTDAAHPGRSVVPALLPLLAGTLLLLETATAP
Assay [5] concerns the target T2, Alkaline phosphatase, tissue-nonspecific isozyme (Homo sapiens, UniProt P05186).
T2 sequence (P05186 whole entry): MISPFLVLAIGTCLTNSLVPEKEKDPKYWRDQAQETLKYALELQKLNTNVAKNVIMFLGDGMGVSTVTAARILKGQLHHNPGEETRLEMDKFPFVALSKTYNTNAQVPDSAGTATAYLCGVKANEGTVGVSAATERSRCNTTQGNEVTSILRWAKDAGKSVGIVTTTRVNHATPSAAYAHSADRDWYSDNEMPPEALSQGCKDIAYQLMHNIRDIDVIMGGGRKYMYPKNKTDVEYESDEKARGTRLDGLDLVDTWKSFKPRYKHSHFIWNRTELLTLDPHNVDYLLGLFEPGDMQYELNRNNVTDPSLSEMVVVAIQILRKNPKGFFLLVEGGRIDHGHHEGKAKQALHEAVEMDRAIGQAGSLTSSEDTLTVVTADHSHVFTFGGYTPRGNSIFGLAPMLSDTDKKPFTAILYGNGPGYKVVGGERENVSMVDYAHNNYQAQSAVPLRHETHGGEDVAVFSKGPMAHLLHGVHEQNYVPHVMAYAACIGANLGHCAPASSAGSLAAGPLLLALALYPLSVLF
Put plainly: potency against alkaline phosphatase TNAP – biochemical, luminescent, dose response, SAR follow-up (AID 1056).

The target of assay [6] is DNA dC->dU-editing enzyme APOBEC-3G (Homo sapiens, UniProt Q9HC16). In kind it is functional.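 Also: Dose-response counterscreen measuring inhibition of APOBEC3G DNA deaminase activity, run while confirming APOBEC3A inhibitors.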
DNA dC->dU-editing enzyme APOBEC-3G, sequence (Q9HC16 whole entry): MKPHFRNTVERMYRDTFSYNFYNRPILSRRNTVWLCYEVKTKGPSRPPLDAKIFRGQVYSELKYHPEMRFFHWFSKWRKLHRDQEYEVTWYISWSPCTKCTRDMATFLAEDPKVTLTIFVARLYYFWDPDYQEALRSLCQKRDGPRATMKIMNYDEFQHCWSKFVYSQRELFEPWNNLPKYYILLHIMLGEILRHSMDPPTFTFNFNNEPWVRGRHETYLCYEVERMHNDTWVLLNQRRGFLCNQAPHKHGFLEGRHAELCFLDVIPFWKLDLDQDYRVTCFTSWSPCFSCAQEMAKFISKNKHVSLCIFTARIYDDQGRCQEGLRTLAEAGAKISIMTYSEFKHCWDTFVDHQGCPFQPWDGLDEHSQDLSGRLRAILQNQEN
Assay [7] deals with DNA dC->dU-editing enzyme APOBEC-3A (Homo sapiens, UniProt P31941). Briefly: Dose Response confirmation of small molecule APOBEC3A DNA Deaminase Inhibitors via a fluorescence-based single-stranded DNA deaminase assay. [Related pubchem assays (depositor defined):AID493011, AID493024]. In kind it is functional.
DNA dC->dU-editing enzyme APOBEC-3A, sequence (P31941 whole entry): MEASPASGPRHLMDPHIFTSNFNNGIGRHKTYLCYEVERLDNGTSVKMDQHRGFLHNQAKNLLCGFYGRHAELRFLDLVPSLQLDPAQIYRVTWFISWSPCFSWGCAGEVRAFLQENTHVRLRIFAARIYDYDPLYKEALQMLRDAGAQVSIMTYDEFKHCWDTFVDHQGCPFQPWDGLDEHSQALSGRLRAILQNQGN
The target of assay [8] is T3, Short transient receptor potential channel 4 (Mus musculus, UniProt Q9QUQ5).
T3 sequence (Q9QUQ5 whole entry): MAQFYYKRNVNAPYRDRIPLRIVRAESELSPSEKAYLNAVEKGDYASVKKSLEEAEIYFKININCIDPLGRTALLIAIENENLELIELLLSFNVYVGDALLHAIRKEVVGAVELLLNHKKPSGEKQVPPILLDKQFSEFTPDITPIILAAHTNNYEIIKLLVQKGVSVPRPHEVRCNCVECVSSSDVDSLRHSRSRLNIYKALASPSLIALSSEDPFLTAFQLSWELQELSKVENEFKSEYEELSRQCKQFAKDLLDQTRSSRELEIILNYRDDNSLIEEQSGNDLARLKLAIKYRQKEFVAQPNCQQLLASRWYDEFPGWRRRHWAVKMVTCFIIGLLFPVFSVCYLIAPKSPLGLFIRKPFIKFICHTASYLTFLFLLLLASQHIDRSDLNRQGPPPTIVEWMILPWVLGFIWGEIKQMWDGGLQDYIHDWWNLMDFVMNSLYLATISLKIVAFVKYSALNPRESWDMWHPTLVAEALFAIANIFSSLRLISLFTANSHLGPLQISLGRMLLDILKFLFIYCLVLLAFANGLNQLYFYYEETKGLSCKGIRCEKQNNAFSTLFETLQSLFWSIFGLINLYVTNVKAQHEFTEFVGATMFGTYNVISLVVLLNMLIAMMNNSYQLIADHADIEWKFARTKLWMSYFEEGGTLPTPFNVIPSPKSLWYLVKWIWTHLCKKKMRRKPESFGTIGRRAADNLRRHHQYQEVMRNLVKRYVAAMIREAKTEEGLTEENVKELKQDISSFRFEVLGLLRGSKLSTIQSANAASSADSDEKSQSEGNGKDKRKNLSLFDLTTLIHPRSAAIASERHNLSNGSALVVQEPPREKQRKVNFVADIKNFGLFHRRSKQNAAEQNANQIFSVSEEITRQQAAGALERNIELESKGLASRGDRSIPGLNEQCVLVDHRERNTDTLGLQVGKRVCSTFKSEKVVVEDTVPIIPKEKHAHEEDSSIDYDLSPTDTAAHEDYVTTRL
Put plainly: block of DAMGO-driven TRPC4 calcium entry – cell-based, HEK293 TRPC4/mu-opioid, Fluo-4 calcium, dose response (AID 434942).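 Also: potency of inhibitors blocking the TRPC4 calcium response.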 In kind it is functional.

For the next assay, the target named is T4, X-box-binding protein 1 (Homo sapiens, UniProt P17861).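 Also: confirmatory dose-response counter-screen serving a CHOP assay.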
T4 sequence (P17861 whole entry): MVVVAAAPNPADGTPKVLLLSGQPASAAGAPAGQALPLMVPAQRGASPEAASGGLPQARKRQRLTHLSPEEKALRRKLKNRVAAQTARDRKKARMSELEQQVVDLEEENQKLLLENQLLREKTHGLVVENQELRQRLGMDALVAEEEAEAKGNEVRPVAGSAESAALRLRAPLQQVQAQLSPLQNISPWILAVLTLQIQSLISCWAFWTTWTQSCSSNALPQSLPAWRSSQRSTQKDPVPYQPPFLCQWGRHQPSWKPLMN
In kind it is functional, Cricetulus griseus.

Assay [9] has as its target T5, Histone-lysine N-methyltransferase NSD2 (Homo sapiens, UniProt O96028).
T5 sequence (O96028 whole entry): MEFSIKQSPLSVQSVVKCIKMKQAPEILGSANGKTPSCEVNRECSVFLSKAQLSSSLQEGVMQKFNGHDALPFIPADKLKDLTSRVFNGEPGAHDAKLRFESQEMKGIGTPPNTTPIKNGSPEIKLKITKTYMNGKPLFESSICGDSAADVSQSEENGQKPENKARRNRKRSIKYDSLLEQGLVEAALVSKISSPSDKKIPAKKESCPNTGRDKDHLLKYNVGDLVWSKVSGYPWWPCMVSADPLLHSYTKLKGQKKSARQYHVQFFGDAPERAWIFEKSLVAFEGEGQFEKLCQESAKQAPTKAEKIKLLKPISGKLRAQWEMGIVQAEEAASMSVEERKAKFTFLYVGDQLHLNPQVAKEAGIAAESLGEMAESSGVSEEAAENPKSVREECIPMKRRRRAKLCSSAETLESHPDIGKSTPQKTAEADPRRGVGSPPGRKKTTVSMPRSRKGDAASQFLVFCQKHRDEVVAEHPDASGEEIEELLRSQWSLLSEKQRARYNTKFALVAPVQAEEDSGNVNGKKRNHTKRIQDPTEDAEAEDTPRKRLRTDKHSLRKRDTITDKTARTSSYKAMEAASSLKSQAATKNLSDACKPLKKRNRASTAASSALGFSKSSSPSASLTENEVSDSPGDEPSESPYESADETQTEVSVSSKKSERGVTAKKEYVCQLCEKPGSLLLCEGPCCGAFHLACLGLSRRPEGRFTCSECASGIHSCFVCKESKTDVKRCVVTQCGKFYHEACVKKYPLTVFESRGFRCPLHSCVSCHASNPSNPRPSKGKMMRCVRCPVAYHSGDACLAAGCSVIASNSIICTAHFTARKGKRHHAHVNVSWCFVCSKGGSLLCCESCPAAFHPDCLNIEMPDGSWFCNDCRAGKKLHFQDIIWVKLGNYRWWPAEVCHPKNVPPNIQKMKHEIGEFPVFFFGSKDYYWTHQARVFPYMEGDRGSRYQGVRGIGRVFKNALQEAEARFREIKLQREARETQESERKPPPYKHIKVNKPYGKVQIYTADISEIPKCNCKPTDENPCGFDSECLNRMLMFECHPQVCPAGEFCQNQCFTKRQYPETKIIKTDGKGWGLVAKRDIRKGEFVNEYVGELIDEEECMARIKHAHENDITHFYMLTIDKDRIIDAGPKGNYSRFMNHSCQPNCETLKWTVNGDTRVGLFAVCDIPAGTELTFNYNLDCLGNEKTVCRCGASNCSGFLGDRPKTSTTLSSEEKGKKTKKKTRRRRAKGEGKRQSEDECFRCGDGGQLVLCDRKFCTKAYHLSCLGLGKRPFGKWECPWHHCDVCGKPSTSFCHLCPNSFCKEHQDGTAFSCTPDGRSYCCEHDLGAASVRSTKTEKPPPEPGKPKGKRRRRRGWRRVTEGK
In kind it is biochemical.

Consider 17 compounds from ChEMBL document CHEMBL1201862, “PubChem BioAssay data set” (2004).

Active and inactive are the calls of the source. Rule as the data show it, for most assays here: actives have a measured IC50 and inactives only a lower limit.

In general, IC50 refers to the concentration that gives 50% inhibition. Regarding `Cc1ccc(C(=O)NCC(=O)OCC(=O)NC(C)c2ccccc2)s1` (stereo not given), the IC50 at Aminopeptidase N was 39.6 µM (active).
Turning to `CC1=CC(C)C(CN(CCC[N+](C)(C)C)C(=O)Nc2ccccc2)C(C)C1` (stereo not given), the IC50 was 4.08 µM (active) in assay [1] and > 100 µM (inactive) in assay [2].
Regarding `Cc1[nH]c2ccccc2c1/C=C1\SC(=S)N(c2cccc(C(=O)O)c2)C1=O`, the IC50 at Aminopeptidase N was 55.9 µM (active).
As to `COc1ccc(-c2nc3c4cnn(C)c4ncn3n2)cc1`, the 50% inhibitory concentration (IC50) in [3] is > 100 µM (not active); in [4], > 100 µM (inactive); in assay [5], > 100 µM (inactive).
As to `COC(=O)CCCCCCCCC(O)C[N+]1(C)CCOCC1` (stereo not given), the IC50 in assay [6] is 3.49 µM (active); in [1] it was 2.48 µM (active); in assay [7] it was 2.36 µM (active); in assay [2], > 100 µM (inactive).
The term EC50 denotes the concentration that produces a half-maximal response. In the case of `CC1(C)CC2CC(C)(CN2CC(O)COc2ccccc2)C1` (stereo not given), the EC50 in [8] is 1.88 µM (active).
Turning to `Cn1c(=O)cc(SCC(=O)NCCC2=CCCCC2)c2ccc(Cl)cc21`, the “Absolute IC50 (XBP1)” value at X-box-binding protein 1 worked out at 10 µM.
Take `CCCCCCCCCCSc1nnc(NC(C)=O)[nH]1`: the IC50 in assay [4] was > 100 µM (inactive).
As usually defined, the AC50 is the concentration at which the activity in the assay is half-maximal. With `NC(=O)c1ccc(-n2nnnc2SCC(=O)c2ccc(O)c(O)c2)cc1`, the AC50 in assay [9] is > 20 µM (inactive). The IC50 in assay [4] was 1.76 µM (active); in assay [5] it was 3.48 µM (active).
Regarding `CCn1c(SCC(=O)NCc2ccccc2)nnc1C(CO)NC(=O)c1ccccc1` (stereo not given), the IC50 in assay [6] is 4.48 µM (active); in [1], 6.06 µM (active); in [7], 3.67 µM (active); in [2] it was > 100 µM (inactive).
As to `NNC(=O)Cn1c(-c2nonc2N)nc2ccccc21`, the IC50 at Aminopeptidase N is 58.2 µM (active).
Consider `O=C(c1ccc2c(c1)OCO2)C1CCCN(Cc2ccccc2OC(F)F)C1` (stereo not given), for which, in [8], the EC50 was 2.99 µM (active).
`CCOC(=O)N1CCC(n2c(=S)[nH]c3cc(OCC)c(OCC)cc3c2=O)CC1`: at X-box-binding protein 1, the “Absolute IC50 (XBP1)” value was found to be 10 µM.
As for `COCCCNc1cc(C)nc2ccccc12`, the EC50 in assay [8] was 3.76 µM (active).
With `CC[N+](C)(CC)CCC/C(=N/O)C(O)(c1ccccc1)c1ccccc1`, the IC50 is 5.57 µM (active) in assay [1] and > 100 µM (inactive) in [2].
On to `O=C(c1cc(-c2ccc(Cl)cc2Cl)n[nH]1)N1CCN(CCO)CC1`, for which the values for the IC50 in assay [3] and in assay [4] were > 100 µM (not active) and > 100 µM (inactive), respectively.
For `CC(=O)OC[C@]12CCC(C)=C[C@H]1O[C@@H]1[C@H](O)[C@@H](OC(C)=O)[C@@]2(C)[C@]12CO2` [ANGUIDIN], on X-box-binding protein 1, the “Absolute IC50 (XBP1)” value stood at 0.16 µM.
